Source: patent US8039496B2, “Therapeutic compounds” (Allergan, Inc., priority 2007, dated 2011)

Legend:
[1] = tested on: normotensive dogs; test: Intraocular pressure in normotensive dogs; type: in vivo; conditions: Canis lupus familiaris, topical, 120 h, once daily for 5 days, read-out: maximum IOP decrease from baseline (percent)
Experimental: (§1) U.S. Pat. No. 7,091,231 describes the methods used for these in vivo tests. 5-{3-[1R,2S,3R,5R)-5-Chloro-2-(3,5-dichloro-phenoxymethyl)-3-hydroxy-cyclopentyl]-propyl}-thiophene-2-carboxylic acid was tested at multiple concentrations in normotensive dogs, dosing once daily for 5 days. At 0.1%, the maximum intraocular pressure (IOP) decrease from baseline was 7.5 mmHg (48%) at 30 h; the maximum ocular surface hyperemia (OSH) score was 2.75 at 26 h. At 0.01%, the maximum IOP decrease from baseline was 7.5 mmHg (43%) at 76 h; the maximum OSH score was 2.0 at 26 h. At 0.005%, the maximum IOP decrease from baseline was 6.6 mmHg (35%) at 78 h; the maximum OSH score was 1.75 at 74 h. This compound was also tested in laser-induced hypertensive monkeys, using one single day dose. At 0.01%, the maximum IOP decrease from baseline was 20.2 mmHg (53%) at 24 h.

[2] = tested on: normotensive dogs; test: Ocular surface hyperemia in normotensive dogs; type: in vivo; set-up: scale not given here; conditions: once daily for 5 days
Experimental: as §1

[3] = tested on: laser-induced hypertensive monkeys; test: Intraocular pressure in laser-induced hypertensive monkeys; type: in vivo; conditions: one single day dose
Experimental: as §1

[4] = molecular target: T1, hDP (Homo sapiens, UniProt Q13258); test: Other receptors: hDP; type: cell-based; conditions: the 3rd table; read-out: Other Receptors (ED50 in nM) hDP
T1 sequence (Q13258 1-359): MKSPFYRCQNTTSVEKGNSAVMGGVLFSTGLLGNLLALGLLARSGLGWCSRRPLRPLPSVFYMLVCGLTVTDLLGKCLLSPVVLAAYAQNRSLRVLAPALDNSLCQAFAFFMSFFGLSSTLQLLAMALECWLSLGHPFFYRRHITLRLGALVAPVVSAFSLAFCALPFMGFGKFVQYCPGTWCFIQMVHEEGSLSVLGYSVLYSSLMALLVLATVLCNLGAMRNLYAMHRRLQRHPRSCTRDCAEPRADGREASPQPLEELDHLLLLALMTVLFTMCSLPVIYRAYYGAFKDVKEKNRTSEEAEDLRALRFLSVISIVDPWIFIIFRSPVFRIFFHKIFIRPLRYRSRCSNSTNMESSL
Description: (§2) U.S. patent application Ser. No. 11/553,143, filed on Oct. 26, 2006, describes the methods used to obtain the in vitro data in the table below.

[5] = molecular target: T2, hEP1 (Homo sapiens, UniProt P34995); test: Other receptors: hEP1; type: cell-based; conditions: the 3rd table; read-out: Other Receptors (ED50 in nM) hEP1
T2 sequence (P34995 1-402): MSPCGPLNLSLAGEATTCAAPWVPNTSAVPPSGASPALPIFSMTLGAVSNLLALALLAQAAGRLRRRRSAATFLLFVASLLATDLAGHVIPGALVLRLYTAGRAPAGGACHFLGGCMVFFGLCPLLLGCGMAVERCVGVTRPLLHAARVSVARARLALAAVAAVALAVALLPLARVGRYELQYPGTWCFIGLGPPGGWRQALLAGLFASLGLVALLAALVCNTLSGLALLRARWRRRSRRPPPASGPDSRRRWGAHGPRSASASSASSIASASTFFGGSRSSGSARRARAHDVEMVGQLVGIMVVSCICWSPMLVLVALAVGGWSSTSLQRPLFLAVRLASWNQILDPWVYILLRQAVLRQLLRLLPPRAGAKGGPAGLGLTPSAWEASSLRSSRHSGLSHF
Description: as §2

[6] = molecular target: T3, hEP3 (Homo sapiens, UniProt P43115); test: Other receptors: hEP3 / hEP3A; type: cell-based; conditions: the 3rd table; read-out: Other Receptors (ED50 in nM) hEP3A
T3 sequence (P43115 1-390): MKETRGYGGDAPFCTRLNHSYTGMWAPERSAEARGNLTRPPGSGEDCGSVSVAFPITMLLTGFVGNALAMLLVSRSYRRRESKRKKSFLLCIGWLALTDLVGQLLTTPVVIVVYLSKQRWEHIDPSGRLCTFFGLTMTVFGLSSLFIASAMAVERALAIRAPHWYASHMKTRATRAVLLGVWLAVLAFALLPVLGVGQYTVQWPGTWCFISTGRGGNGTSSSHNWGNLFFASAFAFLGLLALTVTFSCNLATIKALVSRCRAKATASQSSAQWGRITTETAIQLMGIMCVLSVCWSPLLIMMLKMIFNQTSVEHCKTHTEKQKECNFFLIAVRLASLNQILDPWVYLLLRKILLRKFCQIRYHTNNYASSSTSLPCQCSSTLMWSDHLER
Description: as §2

[7] = molecular target: T4, hEP4 (Homo sapiens, UniProt P35408); test: hEP4 binding (Ki); conditions: the 3rd table; read-out: EP4 data KI
T4 sequence (P35408 whole entry): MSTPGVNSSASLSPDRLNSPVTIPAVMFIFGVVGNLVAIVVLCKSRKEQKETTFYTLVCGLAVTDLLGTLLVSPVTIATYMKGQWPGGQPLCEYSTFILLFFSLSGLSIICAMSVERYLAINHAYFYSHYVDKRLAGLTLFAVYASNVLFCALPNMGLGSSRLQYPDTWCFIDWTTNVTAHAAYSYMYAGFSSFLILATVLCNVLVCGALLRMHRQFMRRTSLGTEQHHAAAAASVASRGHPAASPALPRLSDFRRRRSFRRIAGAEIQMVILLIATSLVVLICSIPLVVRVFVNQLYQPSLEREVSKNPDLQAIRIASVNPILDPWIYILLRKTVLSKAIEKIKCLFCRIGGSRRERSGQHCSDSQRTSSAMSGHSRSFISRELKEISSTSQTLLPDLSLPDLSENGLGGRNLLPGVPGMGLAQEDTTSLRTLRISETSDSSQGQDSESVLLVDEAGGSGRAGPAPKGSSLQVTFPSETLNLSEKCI
Description: as §2

[8] = molecular target: T4, hEP4; test: hEP4 flipr functional assay; type: cell-based; conditions: the 3rd table; read-out: EP4 data flipr EC50
Description: as §2

[9] = molecular target: T5, hEP2 (Homo sapiens, UniProt P43116); test: hEP2 cAMP functional assay; type: cell-based; conditions: the 3rd table; read-out: EP2 data cAMP EC50
T5 sequence (P43116 whole entry): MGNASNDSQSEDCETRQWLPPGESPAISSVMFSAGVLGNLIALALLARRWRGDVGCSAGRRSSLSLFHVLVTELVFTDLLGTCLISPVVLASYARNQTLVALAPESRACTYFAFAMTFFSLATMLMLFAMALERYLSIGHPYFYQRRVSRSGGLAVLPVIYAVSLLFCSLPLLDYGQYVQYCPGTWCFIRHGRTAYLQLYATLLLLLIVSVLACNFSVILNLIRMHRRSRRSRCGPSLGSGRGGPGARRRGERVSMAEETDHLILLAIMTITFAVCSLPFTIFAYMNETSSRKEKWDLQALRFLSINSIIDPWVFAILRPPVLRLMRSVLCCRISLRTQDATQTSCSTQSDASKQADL
Description: as §2

[10] = molecular target: T5, hEP2; test: hEP2 binding (Ki); conditions: the 3rd table; read-out: EP2 data Ki
Description: as §2

[11] = molecular target: T5, hEP2; test: hEP2 flipr functional assay; type: cell-based; conditions: the 3rd table; read-out: EP2 data flipr EC50
Description: as §2

Structure (SMILES): CC(=O)OCc1cc(Cl)cc(OC[C@@H]2[C@@H](C/C=C\CCCC(=O)OC(C)C)[C@H](Cl)C[C@H]2O)c1 [Example 13, (Z)-Isopropyl 7-((1R,2S,3R,5R)-2-((3-(acetoxymethyl)-5-chlorophenoxy)methyl)-5-chloro-3-hydroxycyclopentyl)hept-5-enoate]
- inhibition in vivo at 0.1 % [1]: 20%
- maximum ocular surface hyperemia (OSH) score ([2]; 0.1%): 0.7
- maximum IOP decrease from baseline ([3]; 0.1%): 8.2 mmHg
- maximum IOP decrease from baseline (percent) ([3]; 0.1%): 21%

Structure (SMILES): O=C(O)CCC/C=C\C[C@@H]1[C@@H](COc2cc(Cl)cc(CO)c2)[C@H](O)C[C@H]1Cl [(Z)-7-[(1R,2S,3R,5R)-5-Chloro-2-(3-chloro-5-hydroxymethyl-phenoxymethyl)-3-hydroxy-cyclopentyl]-hept-5-enoic acid]
- inhibition in vivo at 0.1 % [1]: 13.5%
- maximum ocular surface hyperemia (OSH) score ([2]; 0.1%): 0.9
- maximum IOP decrease from baseline ([3]; 0.1%): 8 mmHg
- maximum IOP decrease from baseline (percent) ([3]; 0.1%): 21%

Structure (SMILES): CCc1cccc(OC[C@@H]2[C@@H](CCCc3ccc(C(=O)O)s3)[C@H](Cl)C[C@H]2O)c1 [5-(3-((1R,2S,3R,5R)-5-chloro-2-((3-ethylphenoxy)methyl)-3-hydroxycyclopentyl)propyl)thiophene-2-carboxylic acid]
- EC50 [4]: 4440 nM
- EC50 [5]: 31500 nM
- EC50 [6]: 3570 nM
- Ki [7]: 214 nM
- EC50 [8]: 6.74 µM
- EC50 [9]: 0.4 nM
- Ki [10]: 4 nM
- EC50 [11]: 447 nM

Structure (SMILES): O=C(O)c1ccc(CCC[C@@H]2[C@@H](COc3cccc4c3CCCC4)[C@H](O)C[C@H]2Cl)s1 [5-(3-((1R,2S,3R,5R)-5-chloro-3-hydroxy-2-((5,6,7,8-tetrahydronaphthalen-1-yloxy)methyl)cyclopentyl)propyl)thiophene-2-carboxylic acid]
- EC50 [4]: 8620 nM
- EC50 [6]: 5790 nM
- Ki [7]: 1460 nM
- EC50 [8]: 9.83 µM
- EC50 [9]: 2.5 nM
- Ki [10]: 37 nM
- EC50 [11]: 175 nM

Structure (SMILES): CC(C)OC(=O)CCC/C=C\C[C@@H]1[C@@H](COc2cc(Cl)cc(CO)c2)[C@H](O)C[C@H]1Cl [Example 12, (Z)-Isopropyl 7-((1R,2S,3R,5R)-5-chloro-2-((3-chloro-5-(hydroxymethyl)phenoxy)methyl)-3-hydroxycyclopentyl)hept-5-enoate]
- inhibition in vivo at 0.1 % [1]: 33%
- maximum ocular surface hyperemia (OSH) score ([2]; 0.1%): 0.8
- maximum IOP decrease from baseline ([3]; 0.1%): 7.4 mmHg
- maximum IOP decrease from baseline (percent) ([3]; 0.1%): 21%

Structure (SMILES): O=C(O)c1ccc(CCC[C@@H]2[C@@H](COc3cccc4ccccc34)[C@H](O)C[C@H]2Cl)s1 [5-(3-((1R,2S,3R,5R)-5-chloro-3-hydroxy-2-((naphthalen-1-yloxy)methyl)cyclopentyl)propyl)thiophene-2-carboxylic acid]
- EC50 [4]: 4150 nM
- EC50 [6]: 4030 nM
- Ki [7]: 114 nM
- EC50 [8]: > 10 µM
- EC50 [9]: 0.7 nM
- Ki [10]: 5.5 nM
- EC50 [11]: 949 nM

Structure (SMILES): O=C(O)c1ccc(CCC[C@@H]2[C@@H](COc3cc(Cl)cc(Cl)c3)[C@H](O)C[C@H]2Cl)s1 [Example 4, 5-{3-[(1R,2S,3R,5R)-5-Chloro-2-(3,5-dichloro-phenoxymethyl)-3-hydroxy-cyclopentyl]-propyl}-thiophene-2-carboxylic acid]
- inhibition in vivo at 0.005 % ([1]; 0.005%): 35%
- inhibition in vivo at 0.01 % ([1]; 0.01%): 43%
- inhibition in vivo at 0.1 % [1]: 48%
- maximum ocular surface hyperemia (OSH) score ([2]; 0.005%): 1.75
- maximum ocular surface hyperemia (OSH) score ([2]; 0.01%): 2.0
- maximum ocular surface hyperemia (OSH) score ([2]; 0.1%): 2.75
- maximum IOP decrease from baseline ([3]; 0.01%): 20.2 mmHg
- maximum IOP decrease from baseline (percent) ([3]; 0.01%): 53%

Structure (SMILES): Cc1cc(OC[C@@H]2[C@@H](CCCc3ccc(C(=O)O)s3)[C@H](Cl)C[C@H]2O)cc(C)c1Cl [5-(3-((1R,2S,3R,5R)-5-chloro-2-((4-chloro-3,5-dimethylphenoxy)methyl)-3-hydroxycyclopentyl)propyl)thiophene-2-carboxylic acid]
- EC50 [4]: 7190 nM
- Ki [7]: 170 nM
- EC50 [8]: > 10 µM
- EC50 [9]: 0.2 nM
- Ki [10]: 0.7 nM
- EC50 [11]: 1490 nM

Structure (SMILES): O=C(O)c1ccc(CCC[C@@H]2[C@@H](COc3ccccc3)[C@H](O)C[C@H]2Cl)s1 [5-(3-((1R,2S,3R,5R)-5-chloro-3-hydroxy-2-(phenoxymethyl)cyclopentyl)propyl)thiophene-2-carboxylic acid]
- EC50 [4]: 9090 nM
- EC50 [6]: 9650 nM
- Ki [7]: 2320 nM
- EC50 [8]: 8.42 µM
- EC50 [9]: 3.4 nM
- Ki [10]: 29 nM
- EC50 [11]: 235 nM

Structure (SMILES): O=C(O)c1ccc(CCC[C@@H]2[C@@H](COc3ccc(Cl)c4ccccc34)[C@H](O)C[C@H]2Cl)s1 [5-(3-((1R,2S,3R,5R)-5-chloro-2-((4-chloronaphthalen-1-yloxy)methyl)-3-hydroxycyclopentyl)propyl)thiophene-2-carboxylic acid]
- EC50 [4]: 13500 nM
- Ki [7]: 1930 nM
- EC50 [8]: 15 µM
- EC50 [9]: 2.5 nM
- Ki [10]: 10 nM
- EC50 [11]: 3530 nM

Structure (SMILES): CCCc1cccc(OC[C@@H]2[C@@H](CCCc3ccc(C(=O)O)s3)[C@H](Cl)C[C@H]2O)c1 [5-(3-((1R,2S,3R,5R)-5-chloro-3-hydroxy-2-((3-propylphenoxy)methyl)cyclopentyl)propyl)thiophene-2-carboxylic acid]
- EC50 [5]: 17900 nM
- EC50 [6]: 6520 nM
- Ki [7]: 471 nM
- EC50 [8]: > 10 µM
- EC50 [9]: 0.4 nM
- Ki [10]: 6 nM
- EC50 [11]: 33 nM

Structure (SMILES): O=C(O)c1ccc(CCC[C@@H]2[C@@H](COc3cc(F)cc(F)c3)[C@H](O)C[C@H]2Cl)s1 [5-(3-((1R,2S,3R,5R)-5-chloro-2-((3,5-difluorophenoxy)methyl)-3-hydroxycyclopentyl)propyl)thiophene-2-carboxylic acid]
- EC50 [4]: 12100 nM
- EC50 [6]: 4140 nM
- Ki [7]: 1280 nM
- EC50 [8]: 5.29 µM
- EC50 [9]: 0.3 nM
- Ki [10]: 3 nM
- EC50 [11]: 216 nM
